Assays:
[1] = biological target: human PDHK2 (12-407) (Homo sapiens (Human), UniProt Q15119); test: Isothermal titration calorimetry (ITC) binding; conditions: ITC at 30° C., pH 7.5
Procedure: Isothermal Titration Calorimetry
ITC measurements were performed with a VP-ITC micro calorimeter (Microcal, LLC/GE Healthcare Bio-Sciences Aft Uppsala, Sweden). In general titrations were performed by titrating the protein (50 μM) to the test compound (5 μM) in 12 μl injections. All binding experiments were carried out at 30° C. In general the test compounds were diluted form DMSO stock solutions into the measurement buffer with a maximum final concentration of 1% DMSO. The measurement buffer was 20 mM HEPES, 135 mM KCl, 1 mM TCEP, 2 mM MgCl2, 15 mM NaH2PO4, pH 7.5. The human PDHK2 (12-407) was produced in E. coli as his-tagged protein and purified by affinity chromatography. The tag was removed by side specific proteolysis. Before titration the protein buffer was changed to the measurement buffer containing the same DMSO concentration as the test compound dilution. ITC data analysis was performed using Origin 7 calorimetry software from the same supplier. For most measurements a binding model of one binding site was assumed. According to the applied mathematical model it is possible to calculate the binding constant (KA), the observed binding enthalpy (ΔH^obs) as well as the stoichiometry (N) of the formed complex.
Preceding analysis the raw data was corrected for the heats of dilution by extrapolating from the saturation value from the end of titration. In order to allow for direct comparison between the respective experimental series and protein preparations the protein concentration was corrected by referencing titrations to a well behaved standard inhibitor. The apparent stoichiometry values defined the fraction of binding competent protein and compensated for relative errors in protein concentration measurements. This corrected protein concentration was used to set up ITC experiment series with test compounds. Any deviations from ideal 1:1 stoichiometry observed here were attributed to errors in compound concentration. This nominal compound concentration was corrected as well to achieve 1:1 stoichiometry in the fit.

[2] = biological target: PDHK2 (Homo sapiens (Human), UniProt Q15119); test: Biochemical activity testing of PDHK2: PDC inactivation assay; conditions: human rec PDHK2, porcine heart PDC, 5 μM ATP, read-out: IC50 PDHK2 (enzyme assay)
Text: Biochemical Activity Testing of PDHK2: PDC Inactivation Assay
The biochemical activity assay for PDHK2 is based on the inactivation of PDC through phosphorylation by PDHK2. The assay is run in two steps: the enzymatic PDHK2 reaction in which isolated PDC is phosphorylated by PDHK2 with ATP as co-substrate and the PDC activity assay in which pyruvate and NAD are converted to acetyl-CoA and NADH. The PDC activity correlates to the increase in NADH and thereby is detectable directly via the increasing fluorescence signal (Exc 340 nm, Em 450 nm). Inhibition of PDHK2 results in a lower phosphorylation status and thereby a less decrease in activity of PDC and a stronger increase in NADH fluorescence signal.
The PDC inactivation assay is performed in Greiner 384-well microtiter plates and is used for high throughput screen. 4 μl of PDHK2 (human, rec, Carna Bioscience, 10 ng/μl-137 nM final concentration) and PDC (isolated from porcine heart, Sigma-Aldrich, 20 mU/ml final concentration) are incubated in the absence or presence of the test compound (10 dilution concentrations) for 30 min at room temperature in kinase buffer (15 mM potassium phosphate buffer, pH 7.0, 60 mM KCl, 1.5 mM DTT, 2.5 mM MgCl2, 0.0125% (w/v) BSA, 0.125% Pluronic F-68). The kinase reaction is started by the addition of 4 μl ATP substrate solution (fc 5 μM in kinase buffer). After 30 min incubation at 37° C. 40 μl of PDC reaction solution (100 mM Tris/HCl, pH 7.8, 0.5 mM EDTA, 1 mM MgCl2, 50 mM NaF, 0.25 mM Coenzyme A, 5 mM pyruvate, 1 mM NAD, 5 mM DTT, 1 mM thiamine pyrophosphate) is added. The first fluorescence measurement is performed on a Perkin Elmer Envision (Exc 340 nm, Em 450 nm). The reaction is incubated for 45 min at room temperature. Afterwards a second fluorescence measurement is performed and the PDC activity is calculated by the difference between both measurements. As full value for the PDHK2 assay the inhibitor-free PDHK2 reaction is used. The pharmacological zero value used is DCA (Sigma-Aldrich) in a final concentration of 3 mM. The inhibitory values […] were determined using either the program Symyx Assay Explorer® or Condosseo® from GeneData.

[3] = tested on: PDH-E1alpha (pSer300) in HEK293T cells; test: Cellular immunofluorescence assay, PDH-E1alpha (pSer300) in HEK293T cells; format: cell-based, human; conditions: Homo sapiens, HEK-293T, 5 hours incubation, anti-PDH-E1alpha (pSer300) immunofluorescence, read-out: IC50 (cell data)
Procedure: Cellular Assay for Determination of Compound Activities
Compound activities were determined in a cellular immunofluorescence assay. Human HEK293T cells were seeded into black 384-well plates with clear bottom and grown overnight.
Next day, test compounds were added to the wells and the plates incubated for 5 hours. Following this, cells were fixed with formaldehyde, permeabilised and blocked. The primary antibody, Anti-PDH-E1alpha (pSer300), AP1064 (Merck Millipore) was added and incubated overnight in the plate wells. Next, cells were washed and the secondary antibody, Alexa Fluor 488, goat anti-rabbit ab (A-11008, Invitrogen) was added together with Hoechst 33258 (H3569, Invitrogen) and incubated for 1 hour in the plate wells. Finally, cells were washed and the plates were measured on the laser scanning cytometer acumen hci (TTpLabtech).
The raw data were normalized against a pharmacological inhibitor control and dose response curves were generated by plotting the percent effect values using the software package Genedata screener (Genedata).

With `C[C@@](O)(C(=O)N1CCc2nn(-c3ccc(Cl)cc3)cc2C1)C(F)(F)F` [Compound A2, (2R)-1-[2-(4-chlorophenyl)-6,7-dihydro-4H-pyrazolo[4,3-c]pyridin-5-yl]-3,3,3-trifluoro-2-hydroxy-2-methyl-propan-1-one] the Kd [1] was 0.3 to 3 µM and the IC50 [2] was 3 to 50 µM.
`C[C@H]1CN(C(=O)[C@@](C)(O)C(F)(F)F)Cc2cnn(-c3ccc(F)cc3)c21` [Compound A15, (R)-3,3,3-Trifluoro-1-[(S)-1-(4-fluoro-phenyl)-7-methyl-1,4,6,7-tetrahydro-pyrazolo[4,3-c]pyridin-5-yl]-2-hydroxy-2-methyl-propan-1-one] was tested, and the IC50 [3] was 0.3 to 3 µM and the IC50 [2] was 0.3 to 3 µM.
`C[C@H]1CN(C(=O)[C@@](C)(O)C(F)(F)F)Cc2cnn(-c3ccccc3)c21` [Compound A19, (R)-3,3,3-Trifluoro-2-hydroxy-2-methyl-1-((S)-7-methyl-1-phenyl-1,4,6,7-tetrahydro-pyrazolo[4,3-c]pyridin-5-yl)-propan-1-one] gave an IC50 [3] of 0.3 to 3 µM and an IC50 [2] of 0.3 to 3 µM.
Molecule `C[C@H]1CN(C(=O)[C@@](C)(O)C(F)(F)F)Cc2cnn(-c3ccc(F)cc3F)c21` [Compound A21, (R)-1-[(S)-1-(2,4-Difluoro-phenyl)-7-methyl-1,4,6,7-tetrahydro-pyrazolo[4,3-c]pyridin-5-yl]-3,3,3-trifluoro-2-hydroxy-2-methyl-propan-1-one] has an IC50 [2] of 0.3 to 3 µM.
`C[C@H]1CN(C(=O)[C@@](C)(O)C(F)(F)F)Cc2cnn(C(C)(C)C)c21` [Compound A23, (R)-1-((S)-1-tert-Butyl-7-methyl-1,4,6,7-tetrahydro-pyrazolo[4,3-c]pyridin-5-yl)-3,3,3-trifluoro-2-hydroxy-2-methyl-propan-1-one] was tested, and the IC50 [2] was 3 to 50 µM.
`C[C@H]1CN(C(=O)[C@@](C)(O)C(F)(F)F)Cc2cnn(-c3ccccc3F)c21` [Compound A25, (R)-3,3,3-Trifluoro-1-[(S)-1-(2-fluoro-phenyl)-7-methyl-1,4,6,7-tetrahydro-pyrazolo[4,3-c]pyridin-5-yl]-2-hydroxy-2-methyl-propan-1-one] gave an IC50 [2] of 0.3 to 3 µM.
`C[C@@H]1CN(C(=O)[C@@](C)(O)C(F)(F)F)Cc2cnn(-c3ccccc3C#N)c21` [Compound A26, 2-[(R)-7-Methyl-5-((R)-3,3,3-trifluoro-2-hydroxy-2-methyl-propionyl)-4,5,6,7-tetrahydro-pyrazolo[4,3-c]pyridin-1-yl]-benzonitrile] was tested, and the IC50 [2] was 3 to 50 µM.
Work on `C[C@H]1CN(C(=O)[C@@](C)(O)C(F)(F)F)Cc2cnn(-c3ccccc3C#N)c21` [Compound A27, 2-[(S)-7-Methyl-5-((R)-3,3,3-trifluoro-2-hydroxy-2-methyl-propionyl)-4,5,6,7-tetrahydro-pyrazolo[4,3-c]pyridin-1-yl]-benzonitrile] yielded an IC50 [2] of 0.3 to 3 µM.
For `C[C@H]1CN(C(=O)[C@@](C)(O)C(F)(F)F)Cc2cn[nH]c21` [Compound A29, (R)-3,3,3-Trifluoro-2-hydroxy-2-methyl-1-((S)-7-methyl-1,4,6,7-tetrahydro-pyrazolo[4,3-c]pyridin-5-yl)-propan-1-one], the Kd [1] was 0.3 to 3 µM and the IC50 [2] was 0.3 to 3 µM.
`C[C@H]1CN(C(=O)[C@@](C)(O)C(F)(F)F)Cc2cnn(-c3ncccc3F)c21` [Compound A33, (R)-3,3,3-Trifluoro-1-[(S)-1-(3-fluoro-pyridin-2-yl)-7-methyl-1,4,6,7-tetrahydro-pyrazolo[4,3-c]pyridin-5-yl]-2-hydroxy-2-methyl-propan-1-one] showed an IC50 [2] of 3 to 50 µM.
For `C[C@H]1CN(C(=O)[C@@](C)(O)C(F)(F)F)Cc2cnn(-c3ncc(F)cc3F)c21` [Compound A35, (R)-1-[(S)-1-(3,5-Difluoro-pyridin-2-yl)-7-methyl-1,4,6,7-tetrahydro-pyrazolo[4,3-c]pyridin-5-yl]-3,3,3-trifluoro-2-hydroxy-2-methyl-propan-1-one], the IC50 [2] was 0.3 to 3 µM.
With `COc1ncc(F)c(-n2ncc3c2[C@H](C)CN(C(=O)[C@@](C)(O)C(F)(F)F)C3)n1` [Compound A36, (R)-3,3,3-Trifluoro-1-[(R)-1-(5-fluoro-2-methoxy-pyrimidin-4-yl)-7-methyl-1,4,6,7-tetrahydro-pyrazolo[4,3-c]pyridin-5-yl]-2-hydroxy-2-methyl-propan-1-one] the IC50 [2] was 0.3 to 3 µM.
`C[C@H]1CN(C(=O)[C@@](C)(O)C(F)(F)F)Cc2cnn(C3CCC(O)CC3)c21` (stereo partly drawn) [Compound A39, (R)-3,3,3-Trifluoro-2-hydroxy-1-[(S)-1-(4-hydroxy-cyclohexyl)-7-methyl-1,4,6,7-tetrahydro-pyrazolo[4,3-c]pyridin-5-yl]-2-methyl-propan-1-one] was tested, and the IC50 [2] was 0.3 to 3 µM.
Work on `C[C@H]1CN(C(=O)[C@@](C)(O)C(F)(F)F)Cc2cnn(-c3ccc(F)cn3)c21` [Compound A41, (R)-3,3,3-Trifluoro-1-[(S)-1-(5-fluoro-pyridin-2-yl)-7-methyl-1,4,6,7-tetrahydro-pyrazolo[4,3-c]pyridin-5-yl]-2-hydroxy-2-methyl-propan-1-one] yielded an IC50 [2] of 3 to 50 µM.
`C[C@@H]1CN(C(=O)C(C)(C)O)Cc2cnn(-c3ccc(F)cc3)c21` [Compound A42, 1-[(R)-1-(4-Fluoro-phenyl)-7-methyl-1,4,6,7-tetrahydro-pyrazolo[4,3-c]pyridin-5-yl]-2-hydroxy-2-methyl-propan-1-one] gave a Kd [1] of less than 0.3 µM and an IC50 [2] of 0.3 to 3 µM.
Work on `C[C@@](O)(C(=O)N1CCn2c(nnc2-c2ccccc2)C1)C(F)(F)F` [Compound A48, (R)-3,3,3-Trifluoro-2-hydroxy-2-methyl-1-(3-phenyl-5,6-dihydro-8H-[1,2,4]triazolo[4,3-a]pyrazin-7-yl)-propan-1-one] yielded a Kd [1] of less than 0.3 µM and an IC50 [2] of 0.3 to 3 µM.
Work on `C[C@H]1CN(C(=O)[C@@](C)(O)C(F)(F)F)Cc2cnc(-c3ccc(F)cc3)n21` [Compound A53, (R)-3,3,3-Trifluoro-1-[(S)-3-(4-fluoro-phenyl)-5-methyl-5,6-dihydro-8H-imidazo[1,5-a]pyrazin-7-yl]-2-hydroxy-2-methyl-propan-1-one] yielded an IC50 [2] of 3 to 50 µM.
With `C[C@H]1CN(C(=O)[C@@](C)(O)C(F)(F)F)Cc2cnc(-c3ccc(F)cc3F)n21` [Compound A55, (R)-1-[(S)-3-(2,4-Difluoro-phenyl)-5-methyl-5,6-dihydro-8H-imidazo[1,5-a]pyrazin-7-yl]-3,3,3-trifluoro-2-hydroxy-2-methyl-propan-1-one] the IC50 [2] was 0.3 to 3 µM.
`C[C@H]1CN(C(=O)[C@@](C)(O)C(F)(F)F)Cc2cnc(-c3ncc(F)cc3F)n21` [Compound A56, (R)-1-[(S)-3-(3,5-Difluoro-pyridin-2-yl)-5-methyl-5,6-dihydro-8H-imidazo[1,5-a]pyrazin-7-yl]-3,3,3-trifluoro-2-hydroxy-2-methyl-propan-1-one] gave an IC50 [2] of 3 to 50 µM.

— patent US10526325B2, “Bicyclic heterocyclic derivatives” (Merck Patent GmbH, priority 2015, dated 2020)
